Data reported in patent publication US4526989A, “1,4-Bis (substituted-amino)-5,8-dihydroxy-anthraquinones and leuco bases thereof” (priority 1979, dated 1985).
Read-outs that look alike come from different tables or passages of the source.

How the values were obtained:
[1] = test system: lymphocytic leukemia P388; experiment: Lymphocytic leukemia P388 test (intraperitoneal administration); format: in vivo, DBA/2 mice; settings: days 1, 5 and 9
Outline: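 DBA/2 mice, single sex, 5-6 per group, inoculated i.p. with 10^6 P388 leukemia cells. Compounds given i.p. at various doses on days 1, 5 and 9; survival followed 30 days, reporting median survival time and treated/control (T/C) survival ratio.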

[2] = test system: lymphocytic leukemia P388; experiment: Lymphocytic leukemia P388 test (oral drug administration); format: in vivo, DBA/2 mice; settings: for T/C × 100: efficacy ≥125%
Procedure: The animals used are DBA/2 mice all of one sex, weighing a minimum of 17 g. and all within a 3 gram weight range. There are 5 or 6 animals per test group. The tumor transplant is by intraperitoneal injection of 0.1 ml. of dilute ascitic fluid containing 10^6 cells of lymphocytic leukemia P388. The test compounds are administered intraperitoneally on days one, 5 and 9 (relative to tumor inoculation) at various doses. The animals are weighed and survivors are recorded on a regular basis for 30 days. The median survival time and the ratio of survival time for treated (T)/control (C) animals are calculated. […] The results of this test with representative compounds of the present invention appear in Table I. The criterion for efficacy is T/C×100≥125%.
The procedure used is the same as for the previously described test for lymphocytic leukemia P388 except that the test compounds are administered orally at various doses rather than intraperitoneally. The criterion for efficacy is T/C×100≥125%.

[3] = test system: melanotic melanoma B16; experiment: Melanotic Melanoma B16 test; format: in vivo, C57BC/6 mice; settings: for response vs control in vivo at 3 mg/kg / response vs control in vivo at 6 mg/kg / response vs control in vivo at 12 mg/kg / response vs control in vivo at 25 mg/kg: Mus musculus, ip, read-out: T/C × 100
Outline: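 C57BC/6 mice (10 per group) were implanted i.p. with B16 melanoma homogenate, then dosed i.p. on days 1–9 at various doses.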

[4] = test system: Ridgway Osteogenic Sarcoma; experiment: Ridgway Osteogenic Sarcoma; format: in vivo, AKD2 F1 /J mice; settings: for % Inhibition Tumor Growth / % Showing 50% Tumor Regression / No. Without Tumors/No. Survivors / Tumor: 7 days after therapy stopped; for Median Survival / T/C: 63 days after therapy stopped
Procedure: The animals used are AKD2 F1 /J mice, all of the same sex, weighing a minimim of 17 g. and all within a three-gram weight range. There are normally 8 animals per test group. The tumor is administered subcutaneously by trocar as five 2-mm. fragments per mouse. The test compounds are administered intraperitoneally every 4 days for a total of 6 inoculations beginning on day 15 (relative to tumor inoculation) at various doses. The animals are weighed and survivors are recorded on a regular basis for 90 days. The regression of tumors is recorded in all test animals.

[5] = Storage behaviour of solid; format: physicochemical
[6] = Mus musculus, P388, ip, 3 mg./kg. i.p., efficacy ≥125%, read-out: T/C × 100
[7] = Mus musculus, P388, ip, 6 mg./kg. i.p., efficacy ≥125%, read-out: T/C × 100
[8] = Mus musculus, P388, ip, 12 mg./kg. i.p., efficacy ≥125%, read-out: T/C × 100
[9] = Mus musculus, P388, ip, 25 mg./kg. i.p., efficacy ≥125%, read-out: T/C × 100
[10] = Mus musculus, P388, ip, 50 mg./kg. i.p., efficacy ≥125%, read-out: T/C × 100
[11] = 3 mg./kg. i.p., days 1 through 9
[12] = 6 mg./kg. i.p., days 1 through 9
[13] = 12 mg./kg. i.p., days 1 through 9
[14] = 25 mg./kg. i.p., days 1 through 9
[15] = 6 mg./kg. i.p., days 1 through 9, efficacy ≥125%
[16] = 12 mg./kg. i.p., days 1 through 9, efficacy ≥125%
[17] = 25 mg./kg. i.p., days 1 through 9, efficacy ≥125%

CN(C)CCNc1ccc(NCCN(C)C)c2c1C(=O)c1c(O)ccc(O)c1C2=O [1,4-Bis[(2-dimethylaminoethyl)amino]-5,8-dihydroxyanthraquinone]
Median Survival Time ([1]; 3 mg./kg. i.p.): 19.5 days
Median Survival Time ([1]; 6 mg./kg. i.p.): 21.0 days
Median Survival Time ([1]; 12 mg./kg. i.p.): 23.0 days
Median Survival Time ([1]; 25 mg./kg. i.p.): 20.5 days
Median Survival Time ([1]; 50 mg./kg. i.p.): 25.0 days
response vs control in vivo at 3 mg/kg [1, 6]: 217%
response vs control in vivo at 6 mg/kg [1, 7]: 233%
response vs control in vivo at 12 mg/kg [1, 8]: 256%
response vs control in vivo at 25 mg/kg [1, 9]: 228%
response vs control in vivo at 50 mg/kg [1, 10]: 278%
Median Survival Time ([2]; 3 mg./kg. oral): 15.0 days
T/C × 100 ([2]; 3 mg./kg. oral): 130%
Median Survival Time ([2]; 6 mg./kg. oral): 16.0 days
T/C × 100 ([2]; 6 mg./kg. oral): 139%
Median Survival Time ([2]; 12 mg./kg. oral): 16.0 days
T/C × 100 ([2]; 12 mg./kg. oral): 139%
Median Survival Time [3, 11]: 25.5 days
Median Survival Time [3, 12]: 27.0 days
Median Survival Time [3, 13]: 28.5 days
Median Survival Time [3, 14]: 24.5 days
response vs control in vivo at 3 mg/kg [3]: 142%
response vs control in vivo at 6 mg/kg [3, 15]: 150%
response vs control in vivo at 12 mg/kg [3, 16]: 158%
response vs control in vivo at 25 mg/kg [3, 17]: 136%
% Inhibition Tumor Growth ([4]; 6 mg./kg. i.p.): 19%
% Showing 50% Tumor Regression ([4]; 6 mg./kg. i.p.): 0%
No. Without Tumors/No. Survivors ([4]; 6 mg./kg. i.p.): 0/6
Tumor ([4]; 6 mg./kg. i.p.): 960 (mm.) 2
Median Survival ([4]; 6 mg./kg. i.p.): 57.5 days
T/C ([4]; 6 mg./kg. i.p.): 129%
% Inhibition Tumor Growth ([4]; 12 mg./kg. i.p.): 61%
% Showing 50% Tumor Regression ([4]; 12 mg./kg. i.p.): 0%
No. Without Tumors/No. Survivors ([4]; 12 mg./kg. i.p.): 0/3
Tumor ([4]; 12 mg./kg. i.p.): 470 (mm.) 2
Median Survival ([4]; 12 mg./kg. i.p.): 37 days
T/C ([4]; 12 mg./kg. i.p.): 83%
% Inhibition Tumor Growth ([4]; 25 mg./kg. i.p.): 41%
% Showing 50% Tumor Regression ([4]; 25 mg./kg. i.p.): 0%
No. Without Tumors/No. Survivors ([4]; 25 mg./kg. i.p.): 0/8
Tumor ([4]; 25 mg./kg. i.p.): 653 (mm.) 2
Median Survival ([4]; 25 mg./kg. i.p.): 78 days
T/C ([4]; 25 mg./kg. i.p.): 175%
% Inhibition Tumor Growth ([4]; 50 mg./kg. i.p.): 78%
% Showing 50% Tumor Regression ([4]; 50 mg./kg. i.p.): 25%
No. Without Tumors/No. Survivors ([4]; 50 mg./kg. i.p.): 2/6
Tumor ([4]; 50 mg./kg. i.p.): 263 (mm.) 2
Median Survival ([4]; 50 mg./kg. i.p.): 92.5 days
T/C ([4]; 50 mg./kg. i.p.): 208%
% Inhibition Tumor Growth ([4]; 100 mg./kg. i.p.): 96%
% Showing 50% Tumor Regression ([4]; 100 mg./kg. i.p.): 28%
No. Without Tumors/No. Survivors ([4]; 100 mg./kg. i.p.): 2/5
Tumor ([4]; 100 mg./kg. i.p.): 52 (mm.) 2
Median Survival ([4]; 100 mg./kg. i.p.): 48 days
T/C ([4]; 100 mg./kg. i.p.): 108%

CN(C)CCNC1=C2C(=O)c3c(O)ccc(O)c3C(=O)C2=C(NCCN(C)C)CC1 [Leuco-1,4-bis[(2-dimethylaminoethyl)amino]-5,8-dihydroxy-anthraquinone]
Median Survival Time ([1]; 1.5 mg./kg. i.p.): 13.0 days
Median Survival Time ([1]; 3 mg./kg. i.p.): 14.5 days
Median Survival Time ([1]; 6 mg./kg. i.p.): 16.0 days
Median Survival Time ([1]; 12 mg./kg. i.p.): 17.5 days
Median Survival Time ([1]; 25 mg./kg. i.p.): 19.0 days
Median Survival Time ([1]; 50 mg./kg. i.p.): 24.5 days
Median Survival Time ([1]; 100 mg./kg. i.p.): 24.5 days
response vs control in vivo at 1.5 mg/kg ([1]; Mus musculus, P388, ip, 1.5 mg./kg. i.p., efficacy ≥125%, read-out: T/C × 100): 130%
response vs control in vivo at 3 mg/kg [1, 6]: 145%
response vs control in vivo at 6 mg/kg [1, 7]: 160%
response vs control in vivo at 12 mg/kg [1, 8]: 175%
response vs control in vivo at 25 mg/kg [1, 9]: 190%
response vs control in vivo at 50 mg/kg [1, 10]: 245%
response vs control in vivo at 100 mg/kg ([1]; Mus musculus, P388, ip, 100 mg./kg. i.p., efficacy ≥125%, read-out: T/C × 100): 245%
Median Survival Time ([2]; 12 mg./kg. oral): 12.5 days
T/C × 100 ([2]; 12 mg./kg. oral): 125%
Median Survival Time ([2]; 25 mg./kg. oral): 13.5 days
T/C × 100 ([2]; 25 mg./kg. oral): 135%
Median Survival Time ([2]; 50 mg./kg. oral): 16.0 days
T/C × 100 ([2]; 50 mg./kg. oral): 160%
Median Survival Time [3, 11]: 21.0 days
Median Survival Time [3, 12]: 21.5 days
Median Survival Time [3, 13]: 23.0 days
Median Survival Time [3, 14]: 25.0 days
response vs control in vivo at 3 mg/kg ([3]; 3 mg./kg. i.p., days 1 through 9, efficacy ≥125%): 127%
response vs control in vivo at 6 mg/kg [3, 15]: 130%
response vs control in vivo at 12 mg/kg [3, 16]: 139%
response vs control in vivo at 25 mg/kg [3, 17]: 151%

O=C1C2=C(NCCNCCNCCO)CCC(NCCNCCNCCO)=C2C(=O)c2c(O)ccc(O)c21 [Example 33, Leuco-1,4-bis[2-[2-(2-hydroxyethylamino)ethylamino]ethylamino]-5,8-dihydroxyanthraquinone]
storage behaviour of solid ([5]; stored at 25° C.): coalesces into a solid cake
storage behaviour of solid ([5]; stored at -25° C.): remains granular
